The text below walks through data of PMC10591299, “Targeting SHP2 with an Active Site Inhibitor Blocks Signaling and Breast Cancer Cell Phenotypes” (ACS Bio & Med Chem Au, 2023).

In assay [1] the target is T1, FL-SHP2 (Homo sapiens, UniProt Q06124).
T1 construct: whether CNBCA is also effective against full-length SHP2 (FL-SHP2); expressed in transfected cells; host or cells: MDA-MB468
T1 sequence (Q06124 1-593): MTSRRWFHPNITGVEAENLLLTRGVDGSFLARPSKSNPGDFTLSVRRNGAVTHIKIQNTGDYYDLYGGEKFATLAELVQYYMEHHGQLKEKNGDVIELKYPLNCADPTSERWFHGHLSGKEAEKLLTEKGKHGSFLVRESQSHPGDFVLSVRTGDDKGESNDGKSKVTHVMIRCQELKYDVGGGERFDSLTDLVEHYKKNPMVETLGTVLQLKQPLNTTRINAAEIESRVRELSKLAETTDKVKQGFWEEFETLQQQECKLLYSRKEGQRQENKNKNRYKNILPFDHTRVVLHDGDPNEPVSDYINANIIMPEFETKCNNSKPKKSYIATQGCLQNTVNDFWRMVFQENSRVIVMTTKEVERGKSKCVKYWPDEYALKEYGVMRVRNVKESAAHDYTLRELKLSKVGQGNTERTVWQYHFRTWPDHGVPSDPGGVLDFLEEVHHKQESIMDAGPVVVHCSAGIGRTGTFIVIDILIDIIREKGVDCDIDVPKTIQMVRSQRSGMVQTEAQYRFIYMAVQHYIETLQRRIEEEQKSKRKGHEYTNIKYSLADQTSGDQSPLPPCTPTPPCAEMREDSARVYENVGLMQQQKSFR
In words: PTPase assay on FLAG-tagged full-length SHP2 immunoprecipitated from MDA-MB468 cells. As to conditions: FLAG-tagged FL-SHP2 on beads from MDA-MB468 cells, 20 μM DiFMUP. The assay is classed as biochemical. The source says: To confirm efficiency of the expression, we conducted IB analysis of total protein extracts (TPE) prepared from the noncancerous MEF cells (mouse embryo fibroblasts), the MDA-MB468 BC cells that overexpress EGFR, and the BT474 BC cells that overexpress HER2. […] We also performed HER2 and EGFR IB analyses, which confirmed overexpression of these RTKs in the BC cells, but not in the MEF cells. […] Next, FL-SHP2 was immunoprecipitated (IP) with anti-FLAG antibody from the TPEs of the three cells (Figure 3F) and used for determining the activation state while still bound to protein-A sepharose beads, as described in the materials and methods. […] We thus used SHP2 expressed in BC cells to test the inhibitory effect of CNBCA on FL-SHP2. […]
For determining the inhibitory effect of CNBCA on FL-SHP2, a FLAG-tagged protein ectopically expressed in the EGFR overexpressing MDA-MB468 cells[8],[15] was used as an enzyme. […] After 20 min of incubation at 37 °C, 100 μL of the supernatant from each sample was transferred to 96-well plates, and fluorescence intensity measure as above, using the Synergy 4 plate reader. The resulting data was then analyzed with the Graphpad Prism software to draw the graph and determine the IC50 value.

Assay [2] relates to BT474 cells. In words: Cell growth in 2D culture, BT474. The assay is classed as cell-based. As to conditions: BT474, 500 nM, 72 h; vehicle treated cells grew to confluency. On the procedure:
(§1) Since SHP2 is essential for the growth and transformation of BC cells,[8],[9],[11] we determined the effect of SHP2 inhibition with CNBCA in 2D and 3D culture systems. For the effect on cell growth, BC cells (BT474 and MDA-MB468) were seeded in 2D culture and treated with a single concentration of CNBCA (500 nM), the concentration that provided a 50% inhibition of SHP2 mediated signaling in BT474 cells. Images were collected at the start and every 24 h for a total of 72 h (3 days). […] For effect on anchorage independent growth, approximately 10^6 cells were seeded in soft agar as described previously,[24] and treated with CNBCA at 500 nM concentration for 10 days with refeeding and adjustment of compound concentration. […] Finally, the effect of CNBCA on cancer stem cell properties was determined by the suspension assay, in which only cells with stem-like properties only can grow and form mammospheres.[7],[24],[36] Approximately 10^6 cells were seeded in nonadherent 6 cm plates and treated with CNBCA (500 nM) for 10 days with complementation of media and drug concentration.

In assay [3] the test system is MDA-MB468 cells. In words: Cell growth in 2D culture, MDA-MB468. The assay is classed as cell-based. As to conditions: MDA-MB468, 500 nM, 72 h; vehicle treated cells grew to confluency. Here is the method: as §1
Assay [4] has as its target T2, SHP2 (Homo sapiens, UniProt Q06124).
T2 construct: endogenous in cells
T2 sequence (Q06124 1-593): T1 sequence (Q06124 1-593)
Briefly: Cellular thermal shift assay (CETSA), SHP2 immunoblot. The assay is classed as binding. As to conditions: 100 μM CNBCA, cell lysate. The source says:
First, we used the cellular thermal shift assay (CETSA) to show whether CNBCA binds to endogenous full-length SHP2 under cellular contexts. The CETSA assay is based on the principle that specific inhibitors bind to a target protein and confer relative stability from heat-induced denaturation and precipitation when compared to a nontarget protein present in the same milieu.[34] Accordingly, we performed CETSA to test the effect of CNBCA on the SHP2 protein stability and compared it with the nontarget PTP1B protein as described in the materials and methods.
After heat treatment, supernatants were analyzed by immunoblotting (IB) for SHP2 and the nontarget phosphatase PTP1B. […] To provide semiquantitative data, band densities of both SHP2 and PTP1B were measured and presented as bar graph. […] On the other hand, the nontarget protein PTP1B was reduced to approximately 50% at 49 °C, to 25% at 55 °C, and to less than 10% at 58 °C (Figure 3B and D).
For the CETSA study, total protein extracts (TPE) prepared from two breast cancer cells, the triple-negative MDA-MB468 and the HER2-positive JIMT-1 cells, were used. Briefly, TPE from the two cell lines were cleared by centrifugation, mixed with CNBCA at 100 μM concentration (the maximum amount used in the IC50 studies), and incubated for 10 min at room temperature to allow binding. The mixture was then divided into 100 μL aliquots, treated with heat for 10 min at different temperatures, ranging from 37 to 64 °C that differ by 3 °C intervals, cooled on ice for 10 min, centrifuged at 20,000g for 20 min to remove precipitated proteins, and the supernatants analyzed by immunoblotting (IB) for SHP2 and the nontarget PTP, PTP1B. Aliquots that were mixed with CNBCA, but not treated with heat were used as positive controls for comparison.
A general note: Immunoblotting shows a protein as a band on a membrane.

For the molecule `CCCCCCCCCOc1ccc(-c2ccc(C(=O)O)cc2)cc1CCCC(=O)O` [CNBCA, 3′-(3-carboxypropyl)-4′-(nonyloxy)-[1,1′-biphenyl]-4-carboxylic acid], in assay [1], the IC50 was 0.615 µM. The “cell growth in 2D culture” value in assay [2] and in assay [3] was “half-confluent” each time. Further, the “SHP2 stabilized in solution (band density)” value is on record as roughly 100% in assay [4] (heat 49 °C 10 min), 95% in assay [4] (heat 52 °C 10 min), 70% in assay [4] (heat 55 °C 10 min) and 45% in assay [4] (heat 58 °C 10 min).

Usually IC50 stands for the concentration that gives 50% inhibition.
